Results taken from publication PMC11111408, “Concurrent inhibition of oncogenic and wild-type RAS-GTP for cancer therapy” (Nature, 2024).
Like-named read-outs stand apart in the source and are kept apart here.

Test system: panel of 183 cancer cell lines
Assay: Cell panel of 183 cancer cell lines, viability (CTG) at Crown Bioscience
Assay type: cell-based
Details: Homo sapiens
Description: The panel consisted of cell lines with any substitution at position 12 of KRAS, NRAS or HRAS (KRAS(G12X), NRAS(G12X), HRAS(G12X)); substitutions in KRAS, NRAS or HRAS at any position other than 12, 13 and 61 (KRAS(other/VUS), NRAS(other/VUS), HRAS(other/VUS)); other oncogenic mutations in the RAS pathway (ABL1, ALK, ARAF, BRAF, CBL, EGFR, ERBB2, ERBB3, ERBB4, ERRFI1, FGFR1, FGFR2, FGFR3, FGFR4, FLT3, HRAS, IGF1R, JAK2, KIT, MAP2K1, MAP2K2, MAPK1, MET, NF1, NRAS, NTRK1, NTRK2, NTRK3, PDGFRA, PTPN11, RAC1, RAF1, RASA1, RET, RIT1, ROS1 and SOS1); and no oncogenic mutations in the RAS pathway. […] Cells were incubated for 120 h, and cell viability was determined using the CellTiter-Glo Luminescent Cell Viability Assay (CTG) (Promega, G7572) according to the manufacturer’s instructions.

Compound: CCn1c(-c2cc(N3CCN(C4CC4)CC3)cnc2[C@H](C)OC)c2c3cc(ccc31)-c1csc(n1)C[C@H](NC(=O)[C@H]1[C@@H]3COC[C@@H]31)C(=O)N1CCC[C@H](N1)C(=O)OCC(C)(C)C2 [RMC-7977]
- EC50 (read-out: RMC-7977 EC50 (M), HEP3B217, RAS pathway WT, Liver): 9.36e-09 M
- EC50 (read-out: RMC-7977 EC50 (M), HM7, KRAS G12D, Large intestine/Colorectum): 1.86e-08 M
- EC50 (read-out: RMC-7977 EC50 (M), HS852T, NRAS G12V, Skin): 4.07e-08 M
- EC50 (read-out: RMC-7977 EC50 (M), HUH28, PTPN11 mut, Liver/Bile duct): 3.91e-08 M
- EC50 (read-out: RMC-7977 EC50 (M), KG1, FGFR fusion, Blood/leukemia): 9.16e-09 M
- EC50 (read-out: RMC-7977 EC50 (M), L82, ALK fusion, Blood/lymphoma): 2e-08 M
- EC50 (read-out: RMC-7977 EC50 (M), NOZ, KRAS G12V, Liver/Bile duct): 4.17e-09 M
- EC50 (read-out: RMC-7977 EC50 (M), OZ, KRAS Q61L, Liver/Bile duct): 3.55e-09 M
- EC50 (read-out: RMC-7977 EC50 (M), PC9, EGFR mut, Lung): 1.56e-08 M
- EC50 (read-out: RMC-7977 EC50 (M), RBE, KRAS G12V, Liver/Bile duct): 3.39e-10 M
- EC50 (read-out: RMC-7977 EC50 (M), RKO, BRAF V600E, Large intestine/Colorectum): > 1e-06 M
- EC50 (read-out: RMC-7977 EC50 (M), RT4, FGFR fusion, Bladder): 1.32e-08 M
- EC50 (read-out: RMC-7977 EC50 (M), SCH, RAS pathway WT, Stomach): > 1e-06 M
- EC50 (read-out: RMC-7977 EC50 (M), SNU719, NRAS Q61L, Stomach): 6.76e-09 M
- EC50 (read-out: RMC-7977 EC50 (M), SNU2535, ALK fusion, Lung): 6.42e-09 M
- EC50 (read-out: RMC-7977 EC50 (M), SNUC2A, KRAS G12D, Large intestine/Colorectum): 2.45e-09 M
- EC50 (read-out: RMC-7977 EC50 (M), SR, ALK fusion, Thymus): 1.41e-08 M
- EC50 (read-out: RMC-7977 EC50 (M), T24, HRAS G12V, Bladder): 1.2e-09 M
- EC50 (read-out: RMC-7977 EC50 (M), T84, KRAS G13D, Large intestine/Colorectum): 5.62e-08 M
- EC50 (read-out: RMC-7977 EC50 (M), TE441T, RAS pathway WT, Muscle): > 1e-06 M
- EC50 (read-out: RMC-7977 EC50 (M), TJ905, NF1 LOF, Brain&Nerves): 1.06e-07 M
- EC50 (read-out: RMC-7977 EC50 (M), YCC2, KRAS G12S, Stomach): 2.19e-09 M
- EC50 (read-out: RMC-7977 EC50 (median), median over ALK fusion cell lines): 1.41e-08 M
- EC50 (read-out: RMC-7977 EC50 (median), median over BRAF V600E cell lines): > 1e-06 M
- EC50 (read-out: RMC-7977 EC50 (median), median over BRAF mut other cell lines): 7.54e-08 M
- EC50 (read-out: RMC-7977 EC50 (median), median over EGFR mut cell lines): 4.52e-09 M
- EC50 (read-out: RMC-7977 EC50 (median), median over ERBB3 mut cell lines): 5.92e-09 M
- EC50 (read-out: RMC-7977 EC50 (median), median over FGFR fusion cell lines): 7.08e-09 M
- EC50 (read-out: RMC-7977 EC50 (median), median over HRAS G12D cell lines): 8.45e-09 M
- EC50 (read-out: RMC-7977 EC50 (median), median over HRAS G12V cell lines): 1.2e-09 M
- EC50 (read-out: RMC-7977 EC50 (median), median over HRAS G161R cell lines): > 1e-06 M
- EC50 (read-out: RMC-7977 EC50 (median), median over HRAS L133R cell lines): 1.23e-08 M
- EC50 (read-out: RMC-7977 EC50 (median), median over HRAS Q61H cell lines): 4.57e-09 M
- EC50 (read-out: RMC-7977 EC50 (median), median over HRAS Q61L cell lines): 1.62e-08 M
- EC50 (read-out: RMC-7977 EC50 (median), median over KRAS A59T cell lines): 1.02e-09 M
- EC50 (read-out: RMC-7977 EC50 (median), median over KRAS G12A cell lines): 1.2e-08 M
- EC50 (read-out: RMC-7977 EC50 (median), median over KRAS G12C cell lines): 1.84e-09 M
- EC50 (read-out: RMC-7977 EC50 (median), median over KRAS G12D cell lines): 2.86e-09 M
- EC50 (read-out: RMC-7977 EC50 (median), median over KRAS G12R cell lines): 2.76e-09 M
- EC50 (read-out: RMC-7977 EC50 (median), median over KRAS G12S cell lines): 3.21e-09 M
- EC50 (read-out: RMC-7977 EC50 (median), median over KRAS G12V cell lines): 1.15e-09 M
- EC50 (read-out: RMC-7977 EC50 (median), median over KRAS G13C cell lines): 1.41e-08 M
- EC50 (read-out: RMC-7977 EC50 (median), median over KRAS G13D cell lines): 3.16e-08 M
- EC50 (read-out: RMC-7977 EC50 (median), median over KRAS P121H cell lines): > 1e-06 M
- EC50 (read-out: RMC-7977 EC50 (median), median over KRAS Q61H cell lines): > 1e-06 M
- EC50 (read-out: RMC-7977 EC50 (median), median over KRAS Q61K cell lines): 3.22e-09 M
- EC50 (read-out: RMC-7977 EC50 (median), median over KRAS Q61L cell lines): 9e-09 M
- EC50 (read-out: RMC-7977 EC50 (median), median over KRAS R97I cell lines): 2.75e-09 M
- EC50 (read-out: RMC-7977 EC50 (median), median over MET amp cell lines): 4.57e-09 M
- EC50 (read-out: RMC-7977 EC50 (median), median over NF1 LOF cell lines): 3.25e-08 M
- EC50 (read-out: RMC-7977 EC50 (median), median over NRAS G12V cell lines): 4.07e-08 M
- EC50 (read-out: RMC-7977 EC50 (median), median over NRAS Q61K cell lines): 1.91e-09 M
- EC50 (read-out: RMC-7977 EC50 (median), median over NRAS Q61L cell lines): 6.76e-09 M
- EC50 (read-out: RMC-7977 EC50 (median), median over NRAS Q61R cell lines): 9.12e-09 M
- EC50 (read-out: RMC-7977 EC50 (median), median over NRAS Y137H cell lines): 2.88e-08 M
- EC50 (read-out: RMC-7977 EC50 (median), median over NTRK1 fusion cell lines): 5.14e-09 M
- EC50 (read-out: RMC-7977 EC50 (median), median over PTPN11 mut cell lines): 7.95e-09 M
- EC50 (read-out: RMC-7977 EC50 (median), median over RAS pathway WT cell lines): 1e-07 M
- EC50 (read-out: RMC-7977 EC50 (median), median over RET fusion cell lines): 5.15e-09 M
- EC50 (read-out: RMC-7977 EC50 (median), median over ROS1 fusion cell lines): 7.49e-09 M
